Assay: Maximum solubility per liter of the active ingredients
Type: physicochemical
Conditions: active ingredient of aqueous canine water formula

Compound: [Cl-].[Cl-].[Mg+2] [Magnium chloride]
- Maximum Solubility/Liter: 1100 µg/mL

Source: patent publication US20100316732A1, “BEVERAGE COMPOSITIONS FOR THE PROMOTION OF JOINT HEALTH IN COMPANION ANIMALS” (priority 2008, published 2010)
